Patent US5296591A, “Trifluoromethylketone derivatives, processes for preparation thereof and use thereof” (Fujisawa Pharmaceutical Co., Ltd., priority 1990, dated 1994)
Where two headings read alike, the source gives them in different places.

Assays:
[1] = tested on: PPE-induced emphysema in golden Syrian hamsters; test: Experimentally (porcine pancreatic elastase) induced emphysema in hamsters; format: in vivo, hamster; settings: for Cst (quasi static lung compliance) / VC (vital capacity): 3 weeks after PPE
Method: Male golden Syrian hamsters, weighing approximately 120 g, were obtained from Japan SLC Inc,.
Porcine pancreatic elastase (PPE) was purchased from Elastin Products Company, Inc,. Dialferin was purchased from Japan Roche Inc,.
Hamsters were anesthetized intraperitoneally with Pentobarbital. The compound of Example 19 was dissolved in saline. Both prior art compounds A and B were suspended in 0.5% methyl cellulose. The drugs were instilled intratracheally through the oral cavity, 5 minutes before 100 μg/site of PPE in 0.2 ml of saline instillation. Three weeks after PPE instillation, the hamsters were anesthetized with Pentobarbital. Respiratory mechanics were studied in supine hamsters using a whole body, constant-volume, variable pressure plethysmograph to measue volume. A water-filled esophageal catheter was used to estimate pleural pressure. Quasi-static deflation pressure-volume (P-V) curves were obtained by intraperitoneally administered Dialferin to suppress spontaneous breathing inflating the lungs to a transpulmonary pressure (PL) of 30 cm H2 O, permitting slow deflation to a PL of 0 cm H2 O and gently aspirating to a PL of -20 cm H2 O . Quasi-static lung compliance (Cst) was defined as the slope of the steep portion of the deflation P-V curve in the mid-volume range. Vital capacity was defined as the difference in lung volume between TLC25 (volume at PL=25 cm H2 O) and RV-20 (volume at PL=-20 cm H2 O).

[2] = tested on: human sputum elastase-induced lung hemorrhage in hamsters; test: Elastase-induced pulmonary damage (lung hemorrhage) in hamsters; format: in vivo, hamster; settings: 5 min predose; for Hemorrhage (OD541 nm): BAL hemoglobin 3 h after elastase; for ED50 elastase-induced lung hemorrhage: intratracheal
Method: Hamsters under pentobarbital anesthesia were used. Saline or saline-containing human sputum elastase was instilled intratracheally via a small incision in the ventral neck region using 1-ml syringe with a 27-gauge needle. After 3 hours, animals were sacrificed by CO2 asphyxiation, each animal's trachea was reexposed. The lungs were then laveged using a 2.5-ml aliquot of saline and then withdrawing the saline, yielding a final volume of approximately 1.5 ml bronchoalveolar lavage (BAC) fluid from each animal.
The cells of BAL fluid were collected by centrifugation and were then diluted with distilled water to disrupt, and the hemoglobin contents determined spectrophotometrically at 541 nm.
Test drugs were dissolved in saline or methyl cellulose, and instilled intratracheally in the same manner as used to instill elastase, at 5 minutes before instillation of elastase.

[3] = tested on: human sputum elastase induced paw edema in C57BL mice; test: Human sputum elastase induced paw edema in mice; format: in vivo, mouse; settings: for Thickness of footpad: 15 min before HSE 20 μg/site, 2 h after HSE
Method: Male C57BL mice at the age of 7-8 weeks were obtained from Japan Clear Inc,.
Human sputum elastase (HSE) was purchased from Elastin Products Company, Inc,. The test drug was administered subcutaneously, and 15 minutes later, HSE was injected into the right hind footpad at the dosage of 20 μg/site, and saline into the left hind footpad as the control. After 2 hours of HSE injection, the paw edema was measured with the dial thickness gage, and the difference of the thickness between right and left hind footpads was calculated.

[4] = target: T1, human sputum elastase (HSE) (Homo sapiens, UniProt P08246); test: Protease inhibition assay (in vitro), human sputum elastase; format: biochemical; settings: substrate methoxysuccinyl-(Ala)2-Pro-Val-p-nitroanilide, 30 min, room temperature, pH 7.5
T1 construct: HSE was obtained from Elastin Products Company Inc., Mo., U.S.A; purchased Elastin Products Company Inc; host or cells: human sputum (from the enzyme's name)
T1 sequence (P08246 30-267): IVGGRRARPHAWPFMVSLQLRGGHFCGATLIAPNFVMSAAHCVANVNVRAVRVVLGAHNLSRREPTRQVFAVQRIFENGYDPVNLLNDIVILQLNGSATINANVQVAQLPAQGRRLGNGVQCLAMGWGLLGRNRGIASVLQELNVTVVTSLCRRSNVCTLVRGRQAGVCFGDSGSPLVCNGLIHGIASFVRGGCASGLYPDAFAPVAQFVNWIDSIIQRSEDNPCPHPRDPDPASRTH
Method: (§1) A buffer used throughout the assay was 0.1M HEPES (4-(2-hydroxyethyl)-1-piperazineethanesulfonic acid) containing 0.5M NaCl, pH 7.5. Twenty-five microliters of 2 mM methoxysuccinyl-(Ala)2 -Pro-Val-p-nitroanilide (100 mM of dimethyl sulfoxide solution were diluted in the buffer) and 50 μl of sample (10 μl of sample in organic solvent was diluted 5-fold in the buffer) were mixed in wells of 96 well-microliter plate. An absorbance of the mixture in wavelength at 415 nm was measured by a microplate reader (Corona Electric Co., Ibaraki, Japan). After the measurement, 25 μl of 6 μg/ml human sputum elastase (HSE) was added and the mixture was allowed to stand for 30 minutes at room temperature. Then, the absorbance at 415 nm was measured. Percent inhibition by drug was determined by 100×(1-"r" inhibitor present/"r" inhibitor absent), where "r" is absorbance after 30 minutes incubation minus absorbance before enzyme addition. Effect of inhibitors against porcine pancreas elastase (Type IV, 5 μg/ml final) was assayed similarly using N-succinyl-(Ala)3 -p-nitroanilide. HSE was obtained from Elastin Products Company Inc., Mo., U.S.A. All other substrates and protease were purchased from Sigma Chemicals Co.

[5] = target: T2, porcine pancreas elastase (Type IV) (Sus scrofa, UniProt P00772); test: Protease inhibition assay (in vitro), porcine pancreas elastase; format: biochemical; settings: substrate N-succinyl-(Ala)3-p-nitroanilide, enzyme 5 μg/ml final
T2 construct: purchased Sigma Chemicals Co; host or cells: porcine pancreas (from the enzyme's name)
T2 sequence (P00772 27-266): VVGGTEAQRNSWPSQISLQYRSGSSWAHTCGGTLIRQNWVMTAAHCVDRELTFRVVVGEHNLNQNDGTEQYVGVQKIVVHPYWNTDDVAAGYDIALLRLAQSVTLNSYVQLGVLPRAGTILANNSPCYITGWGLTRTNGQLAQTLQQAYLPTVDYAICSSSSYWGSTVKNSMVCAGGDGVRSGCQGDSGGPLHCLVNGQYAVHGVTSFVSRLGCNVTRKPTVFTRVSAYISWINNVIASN
Method: as §1

[6] = 1 μg/site intratracheal 5 min before PPE 100 μg/site
[7] = 10 μg/site intratracheal 5 min before PPE 100 μg/site
[8] = 100 μg/site intratracheal 5 min before PPE 100 μg/site
[9] = read-out: IC50 Porcine pancreas elastase

Structure (SMILES): CC(C)C(NC(=O)[C@@H]1CCCN1C(=O)[C@@H](NC(=O)c1ccc(C(=O)NCC(=O)O)cc1)C(C)C)C(=O)C(F)(F)F (mixture of isomers) [Example 19, 3(RS)-[[4-(carboxymethylaminocarbonyl)phenylcarbonyl]-L-valyl-L-prolyl]amino-1,1,1-trifluoro-4-methyl-2-oxopentane]
- Cst (%) Inhibition ([1]; 1 μg/site intratracheal): 15%
- VC (%) Inhibition ([1]; 1 μg/site intratracheal): 12%
- Cst (quasi static lung compliance) [1, 6]: 1.39 ± 0.05 ml/cmH2 O
- VC (vital capacity) [1, 6]: 7.0 ± 0.1 mL
- Cst (%) Inhibition ([1]; 10 μg/site intratracheal): 84%
- VC (%) Inhibition ([1]; 10 μg/site intratracheal): 65%
- Cst (quasi static lung compliance) [1, 7]: 0.70 ± 0.04 ml/cmH2 O
- VC (vital capacity) [1, 7]: 5.8 ± 0.1 mL
- Cst (%) Inhibition ([1]; 100 μg/site intratracheal): 100%
- VC (%) Inhibition ([1]; 100 μg/site intratracheal): 97%
- Cst (quasi static lung compliance) [1, 8]: 0.53 ± 0.02 ml/cmH2 O
- VC (vital capacity) [1, 8]: 5.0 ± 0.1 mL
- Potency compared with prior art compounds, considering Cst and VC values (in words) ([1]; hamster, in vivo): superior to the prior art compounds A and B
- Effect of pretreatment on PPE-induced increases in lung mechanics (in words) ([1]; intratracheal pretreatment, 1-100 μg/site): prevented the development of PPE-induced increases in lung mechanics in a dose dependent manner
- % inhibition of elastase-induced lung hemorrhage ([2]; 1 μg/site intratracheal): 10.8%
- Hemorrhage (OD541 nm) ([2]; 1 μg/site intratracheal): 11.59 ± 1.40 OD541 nm
- % inhibition of elastase-induced lung hemorrhage ([2]; 10 μg/site intratracheal): 93.1%
- Hemorrhage (OD541 nm) ([2]; 10 μg/site intratracheal): 1.663 ± 0.690 OD541 nm
- % inhibition of elastase-induced lung hemorrhage ([2]; 100 μg/site intratracheal): 105.2%
- Hemorrhage (OD541 nm) ([2]; 100 μg/site intratracheal): 0.2141 ± 0.020 OD541 nm
- ED50 elastase-induced lung hemorrhage [2]: 2.4 μg/site
- % Inhibition of paw edema ([3]; 1 mg/kg subcutaneous): 6.4%
- Thickness of footpad ([3]; 1 mg/kg subcutaneous): 43.8 ± 5.67 × 10^-2 mm
- % Inhibition of paw edema ([3]; 10 mg/kg subcutaneous): 20.9%
- Thickness of footpad ([3]; 10 mg/kg subcutaneous): 37.0 ± 13.41 × 10^-2 mm
- % Inhibition of paw edema ([3]; 100 mg/kg subcutaneous): 42.3%
- Thickness of footpad ([3]; 100 mg/kg subcutaneous): 27.0 ± 4.66 × 10^-2 mm
- IC50 [4]: 680 nM
- IC50 ([5]; IC50 Porcine pancreas elastase): 3000 nM

Structure (SMILES): CC(C)C(NC(=O)[C@@H]1CCCN1C(=O)[C@@H](NC(=O)c1ccc(C(=O)NCCCC(=O)O)cc1)C(C)C)C(=O)C(F)(F)F (mixture of isomers) [Example 20, 3(RS)-[[4-[(3-carboxypropyl)aminocarbonyl]phenylcarbonyl]-L-valyl-L-prolyl]amino-1,1,1-trifluoro-4-methyl-2-oxopentane]
- % inhibition of elastase-induced lung hemorrhage ([2]; 1 μg/site intratracheal): 16.1%
- Hemorrhage (OD541 nm) ([2]; 1 μg/site intratracheal): 10.94 ± 1.35 OD541 nm
- % inhibition of elastase-induced lung hemorrhage ([2]; 10 μg/site intratracheal): 86.0%
- Hemorrhage (OD541 nm) ([2]; 10 μg/site intratracheal): 2.522 ± 0.803 OD541 nm
- % inhibition of elastase-induced lung hemorrhage ([2]; 100 μg/site intratracheal): 104.7%
- Hemorrhage (OD541 nm) ([2]; 100 μg/site intratracheal): 0.2680 ± 0.050 OD541 nm
- ED50 elastase-induced lung hemorrhage [2]: 2.5 μg/site
- IC50 [4]: 890 nM
- IC50 [5, 9]: 2400 nM

Structure (SMILES): CC(C)C(NC(=O)[C@@H]1CCCN1C(=O)[C@@H](NC(=O)c1ccc(C(=O)NCCN2CCOCC2)cc1)C(C)C)C(=O)C(F)(F)F.Cl (mixture of isomers) [Example 21, 3(RS)-[[4-[[2-(4-morpholino)ethyl]aminocarbonyl]phenylcarbonyl]-L-valyl-L-prolyl]amino-1,1,1-trifluoro-4-methyl-2-oxopentane hydrochloride]
- % inhibition of elastase-induced lung hemorrhage ([2]; 1 μg/site intratracheal): 13.6%
- Hemorrhage (OD541 nm) ([2]; 1 μg/site intratracheal): 12.76 ± 1.11 OD541 nm
- % inhibition of elastase-induced lung hemorrhage ([2]; 10 μg/site intratracheal): 66.3%
- Hemorrhage (OD541 nm) ([2]; 10 μg/site intratracheal): 5.372 ± 2.06 OD541 nm
- % inhibition of elastase-induced lung hemorrhage ([2]; 100 μg/site intratracheal): 100.0%
- Hemorrhage (OD541 nm) ([2]; 100 μg/site intratracheal): 0.6476 ± 0.129 OD541 nm
- ED50 elastase-induced lung hemorrhage [2]: 4.5 μg/site
- IC50 [4]: 1200 nM
- IC50 [5, 9]: 3700 nM

Structure (SMILES): CC(C)C(NC(=O)CN(C(=O)[C@@H](NC(=O)c1ccc(C(=O)NCC(=O)O)cc1)C(C)C)C1Cc2ccccc2C1)C(=O)C(F)(F)F (mixture of isomers) [Example 27, 3(RS)-[[4-(carboxymethylaminocarbonyl)phenylcarbonyl]-L-valyl-N-(2-indanyl)glycyl]-amino-1,1,1-trifluoro-4-methyl-2-oxopentane]
- % inhibition of elastase-induced lung hemorrhage ([2]; 1 μg/site intratracheal): 24.8%
- Hemorrhage (OD541 nm) ([2]; 1 μg/site intratracheal): 10.68 ± 1.25 OD541 nm
- % inhibition of elastase-induced lung hemorrhage ([2]; 10 μg/site intratracheal): 66.9%
- Hemorrhage (OD541 nm) ([2]; 10 μg/site intratracheal): 4.878 ± 0.917 OD541 nm
- % inhibition of elastase-induced lung hemorrhage ([2]; 100 μg/site intratracheal): 99.8%
- Hemorrhage (OD541 nm) ([2]; 100 μg/site intratracheal): 0.3451 ± 0.084 OD541 nm
- ED50 elastase-induced lung hemorrhage [2]: 3.7 μg/site
- IC50 [4]: 2400 nM
- IC50 [5, 9]: 16000 nM

Structure (SMILES): CC(C)C(NC(=O)CN(C(=O)[C@@H](NC(=O)c1ccc(C(=O)NCCN2CCOCC2)cc1)C(C)C)C1Cc2ccccc2C1)C(=O)C(F)(F)F (mixture of isomers) [Example 29, 3(RS)-[[4-[[2-(4-morpholino)ethyl]aminocarbonyl]phenylcarbonyl]-L-valyl-N-(2-indanyl)glycyl]amino-1,1,1-trifluoro-4-methyl-2-oxopentane]
- % inhibition of elastase-induced lung hemorrhage ([2]; 1 μg/site intratracheal): 14.9%
- Hemorrhage (OD541 nm) ([2]; 1 μg/site intratracheal): 12.05 ± 1.95 OD541 nm
- % inhibition of elastase-induced lung hemorrhage ([2]; 10 μg/site intratracheal): 43.2%
- Hemorrhage (OD541 nm) ([2]; 10 μg/site intratracheal): 8.155 ± 1.76 OD541 nm
- % inhibition of elastase-induced lung hemorrhage ([2]; 100 μg/site intratracheal): 69.4%
- Hemorrhage (OD541 nm) ([2]; 100 μg/site intratracheal): 4.545 ± 1.49 OD541 nm
- ED50 elastase-induced lung hemorrhage [2]: 17.9 μg/site
- IC50 [4]: 2400 nM
- IC50 [5, 9]: 19000 nM
